Read-outs that look alike come from different tables or passages of the source. Bridge positions count the residues as written; N and C are the ends. Square brackets hold non-standard residues; d marks the D form. Peptide text beside a SMILES is read from it. * marks the point of attachment. X1 = COc1cc2cc(c1Cl)N(C)C(=O)C[C@H](OC(=O)[C@H](C)N(C)C(=O)CCS*)[C@]1(C)O[C@H]1[C@H](C)[C@@H]1C[C@@](O)(NC(=O)O1)[C@H](OC)/C=C/C=C(\C)C2; Thr(ol) = C[C@@H](O)[C@H](N)CO; Mpa = O=C(O)CCS
Tested on: NCI-H524 (ATCC) human lung cancer cells
Assay type: cell-based
Method: Conjugates were assessed in an in vitro assay evaluating inhibition of cell proliferation. NCI-H524 (ATCC) human lung cancer cells were plated in 96 well, V-bottomed plates (Costar) at a concentration of 5,000 cells/well and 24 hours later were treated with compound for 2 hours and further incubated 70 hours. Compound starting dose was 20 μM and three-fold serial dilutions were done for a total of ten points. After 2 hours of treatment, cells were spun down, the drug containing media was removed, and fresh complete medium was added and used to resuspend the cells, which were spun again. After removal of the wash media, the cells were resuspended in complete medium, then transferred into white walled, flat bottomed 96 well plates. […] Proliferation was measured using CellTiter Glo reagent using the standard protocol (Promega) and a Glomax multi+detection system (Promega). Percent proliferation inhibition was calculated using the following formula: % inhibition=(control-treatment)/control*100. Control is defined as vehicle alone. IC50 curves were generated using the nonlinear regression analysis (four parameter) with GraphPad Prism 6.
Conjugates of the present invention were assessed in an in vitro assay evaluating inhibition of cell proliferation. NCI-H524 (ATCC) human lung cancer cells were plated in 96 well, V-bottomed plates (Costar) at a concentration of 5,000 cells/well. 24 hours later, cells were treated with either conjugate for 2 hours and further incubated 70 hours, or for octreotide competition experiments, treated with 100 μM octreotide for 30 min, and then treated with conjugate for 2 hours, and further incubated for 70 hours. Conjugate starting dose was 20 μM and three fold serial dilutions were done for a total of ten points. After 2 hours of treatment, cells were spun down, the drug containing media was removed, and fresh complete medium was added and used to resuspend the cells, which were spun again. After removal of the wash media, the cells were resuspended in complete medium, then transferred into white walled, flat bottomed 96 well plates. […] Proliferation was measured using CellTiter Glo reagent using the standard protocol (Promega) and a Glomax multi+detection system (Promega). Percent proliferation inhibition was calculated using the following formula: % inhibition=(control-treatment)/control*100. Control is defined as vehicle alone. IC50 curves were generated using the nonlinear regression analysis (four parameter) with GraphPad Prism 6.
Conjugates of the present invention were tested for their activity dependence on the somatostatin receptor. Active agent Z in the conjugate was selected from auristatin, carbazitaxel, DM1, doxorubicin, platinum, SN-38 and vinblastine. Active agent Z is connected to octreotide with various linkers. Proliferation IC50 values of the conjugates were measured. Proliferation IC50 values of the conjugates without octreotide competition were also measured. The ratio of IC50 with octreotide competition and IC50 without octreotide competition is an indicator of whether activity is at least partially dependent on bind to the somatostatin receptor.

[1] = Table 15, treated 2 hours, further incubated 70 hours, read-out: H524 IC50
[2] = read-out: H524 IC50+ 100 uM octreotide, Table 15, 100 μM octreotide for 30 min, then conjugate 2 hours, 70 hours incubation
[3] = Table 6, treated 2 hours, further incubated 70 hours, read-out: H524 IC50
[4] = read-out: H524 IC50 + 100 μM octreotide, Table 6, with octreotide competition

`COc1cc2cc(c1Cl)N(C)C(=O)C[C@H](OC(=O)[C@H](C)N(C)C(=O)CCSSCC(=O)NCCNC(=O)CC[C@H]1C(=O)N[C@@H](Cc3ccc(O)cc3)C(=O)N[C@H](Cc3c[nH]c4ccccc34)C(=O)N[C@@H](CCCCN)C(=O)N[C@@H]([C@@H](C)O)C(=O)N[C@@H](Cc3ccccc3)C(=O)N1C)[C@]1(C)O[C@H]1[C@H](C)[C@@H]1C[C@@](O)(NC(=O)O1)[C@H](OC)/C=C/C=C(\C)C2` [Conjugate 30] showed an IC50 [1] of 0.47 µM and an IC50 [2] of 2.02 µM.

`COc1cc2cc(c1Cl)N(C)C(=O)C[C@H](OC(=O)[C@H](C)N(C)C(=O)CCSSC[C@H](N)C(=O)N[C@@H](CCCCN)C(=O)N[C@@H](CCCCN)C(=O)N[C@@H](CCCCN)C(=O)N[C@@H](CCCCN)C(=O)N[C@H](Cc1ccccc1)C(=O)N[C@H]1CSSC[C@@H](C(=O)N[C@H](CO)[C@@H](C)O)NC(=O)[C@H]([C@@H](C)O)NC(=O)[C@H](CCCCN)NC(=O)[C@@H](Cc3c[nH]c4ccccc34)NC(=O)[C@H](Cc3ccccc3)NC1=O)[C@]1(C)O[C@H]1[C@H](C)[C@@H]1C[C@@](O)(NC(=O)O1)[C@H](OC)/C=C/C=C(\C)C2` [Conjugate 7] (H-C(X1)KKKK[dF]CF[dW]KTC[Thr(ol)]; disulfide 7-12) was tested, and the IC50 [3] was 0.955 µM, the IC50 [4] was 1.77 µM and the IC50 [2] was 1.77 µM.

Work on `COc1cc2cc(c1Cl)N(C)C(=O)C[C@H](OC(=O)[C@H](C)N(C)C(=O)CCSSCCC(=O)NCCOCCOCCOCCOCCOCCOCCOCCOCCC(=O)N[C@H](Cc1ccccc1)C(=O)N[C@H]1CSSC[C@@H](C(=O)N[C@H](CO)[C@@H](C)O)NC(=O)[C@H]([C@@H](C)O)NC(=O)[C@H](CCCCN)NC(=O)[C@@H](Cc3c[nH]c4ccccc34)NC(=O)[C@H](Cc3ccccc3)NC1=O)[C@]1(C)O[C@H]1[C@H](C)[C@@H]1C[C@@](O)(NC(=O)O1)[C@H](OC)/C=C/C=C(\C)C2` [Conjugate 6] yielded an IC50 [3] of 0.234 µM, an IC50 [4] of 0.629 µM and an IC50 [2] of 0.629 µM.

Compound `COc1cc2cc(c1Cl)N(C)C(=O)C[C@H](OC(=O)[C@H](C)N(C)C(=O)CCSCCCN[C@H](Cc1ccccc1)C(=O)N[C@H]1CSSC[C@@H](C(=O)N[C@H](CO)[C@@H](C)O)NC(=O)[C@H]([C@@H](C)O)NC(=O)[C@H](CCCCN)NC(=O)[C@@H](Cc3c[nH]c4ccccc34)NC(=O)[C@H](Cc3ccccc3)NC1=O)[C@]1(C)O[C@H]1[C@H](C)[C@@H]1C[C@@](O)(NC(=O)O1)[C@H](OC)/C=C/C=C(\C)C2` [Conjugate 100] has an IC50 [1] of 0.303 µM and an IC50 [2] of 1.05 µM.

Work on `CCCCCCCCCCC(CCN[C@H](Cc1ccccc1)C(=O)N[C@H]1CSSC[C@@H](C(=O)N[C@@H](CO)[C@@H](C)O)NC(=O)[C@H]([C@@H](C)O)NC(=O)[C@H](CCCCN)NC(=O)[C@@H](Cc2c[nH]c3ccccc23)NC(=O)[C@H](Cc2ccccc2)NC1=O)SSCCC(=O)N(C)[C@@H](C)C(=O)O[C@H]1CC(=O)N(C)c2cc(cc(OC)c2Cl)C/C(C)=C/C=C/[C@@H](OC)[C@@]2(O)C[C@H](OC(=O)N2)[C@@H](C)[C@@H]2O[C@@]12C` (some centres unmarked) [Conjugate 106] yielded an IC50 [1] of 0.4 µM and an IC50 [2] of 0.666 µM.

With `COc1cc2cc(c1Cl)N(C)C(=O)C[C@H](OC(=O)[C@H](C)N(C)C(=O)CCSSCCC(=O)NCCNC(=O)[C@H](Cc1c[nH]c3ccccc13)NC(=O)[C@@H]1CSSC[C@H](NC(=O)[C@H](N)Cc3ccccc3)C(=O)N[C@@H](Cc3ccc(O)cc3)C(=O)N[C@H](Cc3c[nH]c4ccccc34)C(=O)N[C@@H](CCCCN)C(=O)N[C@@H]([C@@H](C)O)C(=O)N1)[C@]1(C)O[C@H]1[C@H](C)[C@@H]1C[C@@](O)(NC(=O)O1)[C@H](OC)/C=C/C=C(\C)C2` [Conjugate 45] the IC50 [1] was 0.345 µM and the IC50 [2] was 0.481 µM.

For `COc1cc2cc(c1Cl)N(C)C(=O)C[C@H](OC(=O)[C@H](C)N(C)C(=O)CCSSC[C@H](NC(=O)[C@@H]1CSSC[C@H](NC(=O)[C@H](N)Cc3ccccc3)C(=O)N[C@@H](Cc3ccc(O)cc3)C(=O)N[C@H](Cc3c[nH]c4ccccc34)C(=O)N[C@@H](CCCCN)C(=O)N[C@@H]([C@@H](C)O)C(=O)N1)C(=O)O)[C@]1(C)O[C@H]1[C@H](C)[C@@H]1C[C@@](O)(NC(=O)O1)[C@H](OC)/C=C/C=C(\C)C2` [Conjugate 61], the IC50 [1] was 0.089 µM and the IC50 [2] was 0.274 µM.

Work on `COc1cc2cc(c1Cl)N(C)C(=O)C[C@H](OC(=O)[C@H](C)N(C)C(=O)CCSSC[C@H](NC(=O)[C@@H]1CSSC[C@H](NC(=O)[C@H](N)Cc3ccccc3)C(=O)N[C@@H](Cc3ccc(O)cc3)C(=O)N[C@H](Cc3c[nH]c4ccccc34)C(=O)N[C@@H](CCCCN)C(=O)N[C@@H]([C@@H](C)O)C(=O)N1)C(=O)NC1CCCCC1)[C@]1(C)O[C@H]1[C@H](C)[C@@H]1C[C@@](O)(NC(=O)O1)[C@H](OC)/C=C/C=C(\C)C2` [Conjugate 63] yielded an IC50 [1] of 0.044 µM and an IC50 [2] of 0.168 µM.

`COc1cc2cc(c1Cl)N(C)C(=O)C[C@H](OC(=O)[C@H](C)N(C)C(=O)CCSC1CC(=O)N(CC(=O)N[C@H](Cc3ccccc3)C(=O)N[C@H]3CSSC[C@@H](C(=O)N[C@H](CO)[C@@H](C)O)NC(=O)[C@H]([C@@H](C)O)NC(=O)[C@H](CCCCN)NC(=O)[C@@H](Cc4c[nH]c5ccccc45)NC(=O)[C@H](Cc4ccccc4)NC3=O)C1=O)[C@]1(C)O[C@H]1[C@H](C)[C@@H]1C[C@@](O)(NC(=O)O1)[C@H](OC)/C=C/C=C(\C)C2` (some centres unmarked) [Conjugate 108] gave an IC50 [1] of 0.096 µM and an IC50 [2] of 1.28 µM.

With `COc1cc2cc(c1Cl)N(C)C(=O)C[C@H](OC(=O)[C@H](C)N(C)C(=O)CCSSCCC(=O)N[C@H](Cc1ccccc1)C(=O)N[C@H]1CSSC[C@@H](C(=O)N[C@@H](Cc3c[nH]c4ccccc34)C(N)=O)NC(=O)[C@H](C(C)C)NC(=O)[C@H](CCCCN)NC(=O)[C@@H](Cc3c[nH]c4ccccc34)NC(=O)[C@H](Cc3ccc(O)cc3)NC1=O)[C@]1(C)O[C@H]1[C@H](C)[C@@H]1C[C@@](O)(NC(=O)O1)[C@H](OC)/C=C/C=C(\C)C2` [Conjugate 70] ([Mpa](X1)[dF]CY[dW]KVCW-NH2; disulfide 3-8) the IC50 [1] was 0.317 µM and the IC50 [2] was 0.417 µM.

`CCNC(=O)N[C@H](Cc1ccccc1)C(=O)N[C@H]1CSSC[C@@H](C(=O)N[C@H](C(=O)NCCSSCCC(=O)N(C)[C@@H](C)C(=O)O[C@H]2CC(=O)N(C)c3cc(cc(OC)c3Cl)C/C(C)=C/C=C/[C@@H](OC)[C@@]3(O)C[C@H](OC(=O)N3)[C@@H](C)[C@@H]3O[C@@]23C)[C@@H](C)O)NC(=O)[C@H]([C@@H](C)O)NC(=O)[C@H](CCCCN)NC(=O)[C@@H](Cc2c[nH]c3ccccc23)NC(=O)[C@H](Cc2ccc(O)cc2)NC1=O` [Conjugate 65] showed an IC50 [1] of 0.03 µM and an IC50 [2] of 0.229 µM.

For `C[C@@H](O)[C@@H]1NC(=O)[C@H](CCCCN)NC(=O)[C@@H](Cc2c[nH]c3ccccc23)NC(=O)[C@H](Cc2ccccc2)NC(=O)[C@@H](NC(=O)[C@H](N)Cc2ccccc2)CSSC[C@@H](C(=O)N[C@H](CO)[C@@H](C)O)NC1=O` [Octreotide, octreotide, reference compound], the “effect on cell proliferation” value (octreotide alone) was “no significant effect”.

In the case of `CC[C@H](C)[C@@H]([C@@H](CC(=O)N1CCC[C@H]1[C@H](OC)[C@@H](C)C(=O)N[C@H](C)[C@@H](O)c1ccccc1)OC)N(C)C(=O)[C@@H](NC(=O)[C@H](C(C)C)N(C)C(=O)OCc1ccc(NC(=O)[C@H](CCCNC(N)=O)NC(=O)[C@@H](NC(=O)CCCCCN2C(=O)CC(SCCC(=O)N[C@H](Cc3ccccc3)C(=O)N[C@H]3CSSC[C@@H](C(=O)N[C@H](CO)[C@@H](C)O)NC(=O)[C@H]([C@@H](C)O)NC(=O)[C@H](CCCCN)NC(=O)[C@@H](Cc4c[nH]c5ccccc45)NC(=O)[C@H](Cc4ccccc4)NC3=O)C2=O)C(C)C)cc1)C(C)C` (some centres unmarked) [Conjugate 5], the IC50 [3] is reported as 0.433 µM and the IC50 [4] is reported as 0.826 µM.

`COc1cc2cc(c1Cl)N(C)C(=O)C[C@H](OC(=O)[C@H](C)N(C)C(=O)CCSSCCNC(=O)[C@@H](NC(=O)[C@@H]1CSSC[C@H](NC(=O)[C@H](N)Cc3ccccc3)C(=O)N[C@@H](Cc3csc4ccccc34)C(=O)N[C@H](Cc3c[nH]c4ccccc34)C(=O)N[C@@H](CCCCN)C(=O)N[C@@H]([C@@H](C)O)C(=O)N1)[C@@H](C)O)[C@]1(C)O[C@H]1[C@H](C)[C@@H]1C[C@@](O)(NC(=O)O1)[C@H](OC)/C=C/C=C(\C)C2` [Conjugate 37] gave an IC50 [1] of 0.044 µM and an IC50 [2] of 0.166 µM.

From patent publication US10322191B2, “Targeted conjugates and particles and formulations thereof” (TARVEDA THERAPEUTICS, INC., priority 2014, dated 2019)
